Reference: patent US20110021542A1, “Use of a Combination of Udenafil and Alfuzosin or Oxybutynin for the Treatment of Overactive Bladder” (PELVIPHARM, priority 2008, published 2011)

System: carbachol precontracted human bladder strips
Assay: Relaxation of carbachol-precontracted human detrusor strips
Assay type: tissue-based
Settings: carbachol 10^-6 M precontraction; cumulative 10^-9 to 3.10^-5 M; compared with tadalafil, sildenafil, vardenafil; FIG. 1
Method: The experiments, collection and use of any tissue or other samples were carried out in accordance with the Research Plan, all relevant laws, regulations and codes of practice, including having obtaining informed consent of patients in writing. Bladders were obtained from donors undergoing cystectomy for infiltrating bladder cancer with no known bladder dysfunction according to their medical chart. In accordance with French legislation, human tissue samples were obtained with patient informed consent and after hepatitis and HIV serologies determination. After surgical procedure, bladder samples were immediately transported from the operating room to the pathologist facilities where a normal piece of the bladder dome, i.e. with no macroscopic tumoral tissue, was selected for experiments by the pathologist. […] The strips were connected to force transducers (Pioden Controls Ltd, UK) and following amplification, the tension changes were recorded via MacLab™/8 using Chart™ 5 software (AD Instruments Ltd). […] For the evaluation of the effect of drugs to inhibit carbachol-induced contractions, relaxations in response to increasing and cumulative concentrations of PDE5 inhibitors or oxybutynin or corresponding concentrations of vehicle are expressed as the percentage of inhibition of the contractile response to carbachol. […]

CCCOc1ccc(S(=O)(=O)NCCC2CCCN2C)cc1-c1nc2c(CCC)nn(C)c2c(=O)[nH]1 (stereo not shown) [Udenafil, 5-[2-propyloxy-5-(1-methyl-2-pyrrolidinylethylamidosulfonyl)phenyl]-methyl-3-propyl-1,6-dihydro-7H-pyrazolo(4,3-d)pyrimidine-7-one]
inhibitory effect to relax carbachol-induced contractions of human bladder strips: greater inhibitory effect than the other PDE-5 inhibitors tested
